Test results reported in patent US8222264B2, “Substituted amino-quinazolinones, medicaments comprising said compound, their use and their method of manufacture” (Boehringer Ingelheim International GmbH, priority 2007, dated 2012).

These compounds were tested against T1, β-secretase (ectodomain of BACE, amino acids 1-454) (Homo sapiens, UniProt P56817) (assay: β-secretase activity assay, fluorescence-quenched Cy3/Cy5Q peptide substrate). Details: 100 μM test compound; positive control minus negative control = 100%; values above 100% adjusted to 100%.
T1 construct: poly-histidine; made in house; host or cells: HEK293/APP/BACEect. cells; unpurified culture supernatant in OptiMEM used as enzyme source
T1 sequence (P56817 22-454): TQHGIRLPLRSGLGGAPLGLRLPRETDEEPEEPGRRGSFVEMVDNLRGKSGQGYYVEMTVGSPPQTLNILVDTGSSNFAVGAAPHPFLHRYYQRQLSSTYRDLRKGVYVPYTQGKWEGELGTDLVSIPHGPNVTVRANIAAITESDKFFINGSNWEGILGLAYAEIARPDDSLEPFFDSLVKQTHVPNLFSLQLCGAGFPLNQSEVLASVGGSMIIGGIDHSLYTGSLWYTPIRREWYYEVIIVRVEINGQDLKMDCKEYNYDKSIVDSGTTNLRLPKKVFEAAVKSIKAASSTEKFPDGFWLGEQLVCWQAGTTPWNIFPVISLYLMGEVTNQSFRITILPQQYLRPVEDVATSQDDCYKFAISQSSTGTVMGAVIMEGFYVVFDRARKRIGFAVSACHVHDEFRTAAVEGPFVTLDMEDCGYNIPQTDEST
Format: biochemical
Protocol: To calculate the IC50 value of a substance different amounts of substance are incubated with the β-secretase in an assay. The IC50 value of a compound is defined as the concentration of substance at which a 50% reduction in the detected signal is measured, compared with the mixture without the test compound. Substances are evaluated as inhibiting β-secretase if under these conditions their IC50 value is less than 50 μM, preferably less than 10 μM and particularly preferably less than 1 μM.
In detail, an assay for detecting β-secretase activity may be as follows: The ectodomain of BACE (amino acids 1-454) fused to the recognition sequence for an anti-Myc antibody and a poly-histidine is secreted overnight by HEK293/APP/BACEect. cells in OptiMEM® (Invitrogen). A 10 μl aliquot of this cell culture supernatant is used as the enzyme source. The enzyme is stable over more than 3 months' storage at 4° C. or −20° C. in OptiMEM®. The substrate used is a peptide with the amino acid sequence SEVNLDAEFK, to which the Cy3 fluorophore (Amersham) is coupled N-terminally and the Cy5Q fluorophore (Amersham) is coupled C-terminally. The substrate is dissolved in DMSO in a concentration of 1 mg/ml and used in the experiment in a concentration of 1 μM. The test mixture also contains 20 mM NaOAc, pH 4.4 and a maximum of 1% DMSO. The test is carried out in a 96-well plate in a total volume of 200 μl for 30 minutes at 30° C. The cleaving of the substrate is recorded kinetically in a fluorimeter (ex: 530 nm, em: 590 nm). The assay is started by adding the substrate.
Mixtures without enzyme (i.e. negative control) or without inhibitor (i.e. positive control) are included in each plate as controls.
The activity of the positive control (minus the negative control=background) is set to 100% and activity in the presence of test compound is expressed relative to these 100%. […]
IC50 can be calculated with Graph Pad Prism or other suited software setting the positive control minus the negative control as 100. […]
Work on `CN(C(=O)CC[C@@H](C1CCCCC1)n1c(N)nc2ccc(Oc3ccccc3)cc2c1=O)C1CCCCC1` [Example 1] yielded an inhibition at 100 µM of 98%. For `CN(C(=O)CCC(C1CCCCC1)n1c(N)nc2ccc(Br)cc2c1=O)C1CCCCC1` (stereo not drawn) [Example 3], the inhibition at 100 µM was 91%. With `CCOc1ccccc1-c1ccc2nc(N)n(C(CCC(=O)N(C)C3CCCCC3)C3CCCCC3)c(=O)c2c1` (stereo not drawn) [Example 2] the inhibition at 100 µM was 81%.
